# Patent US6596288B2, “Use of sterols as active ingredient in a cosmetic composition against adiposity” (Codif International SA, priority 2000, dated 2003)
# Columns and labels:
# human adipocytes [1] = test: incorporation of [2-14C]-acetate into lipids (LIPOGENESIS) by isolated human adipocytes; assay type: cell-based
# Protocol: (§1) In these experiments, adipocytes were isolated from abdominal restorative surgeries sampled in women. The experiment took place the day of the sampling. Fragments of adipose tissues were incubated for 30 minutes at 37° C. in the presence of collagenase, then the isolated adipocytes were washed and taken up in medium MEM buffered with bicarbonate, in the presence of antibiotics (penicillin/streptomycin), glutamine (2 mM), and delipidated bovine serum albumin (0.5%).
# The tests concerning the effect on lipogenesis were then conducted in the following manner.
# Adipocytes (90 μl of ¼ diluted suspension) were incubated for 1 hour, either with a control medium (4 hours), with molecules known to inhibit the neosynthesis of fatty acids (EPA), as for example […], or with previously diluted extracts (added under 100 μl).
# As to the sterols and to the lipidic extracts of plants or algae, they were diluted in mineral oil which has been verified to not inhibit incorporation or extraction of adipocyte lipids. Then, 10 μl of [2^14C]-acetate, 50 μCi/ml, were added, and the samples were either cultivated at 37° C. in the presence of 5% CO2 for 4 additional hours, or immediately frozen at −80° C. (control t0).
# At the times indicated, the samples were frozen at −80° C. The lipids were then extracted according to the method of Bligh and Dyer (extraction methanol/chloroform/water), then dried under nitrogen. The radioactivity incorporated was then counted by liquid scintillation.
# human adipocytes [2] = test: liberation of NEFA (non-esterified fatty acids) (LIPOLYSIS) by isolated human adipocytes; assay type: cell-based; conditions: for % Control (NEFA liberation) / Average of the NEFA: 2 hours at 37° C.
# Protocol: as §1
# As to the tests concerning the effect on lipolysis, they were conducted in the following manner. Adipocytes (540 μl of suspension) were incubated for 2 hours in a water bath at 37° C., with agitation, in the presence of 60 μl of different sterols. The experiments were carried out in triplicate.
# Then, the non-esterified fatty acids (AGNE) released by the adipocytes were determined in the sub-adipocyte media. The values obtained were treated by an analysis of variance (ANOVA) by means of the multiple comparison test of Dunnett. The values were considered as significant when the probability p was less than the threshold of significance 0.05.
# [3] = 0.01 mM (10^−5 M), absence of insulin, 4 h
# [4] = 0.01 mM (10^−5 M), presence of insulin (1 nM), 4 h
# [5] = 0.1 mM (10^−4 M), absence of insulin, 4 h
# [6] = 0.1 mM (10^−4 M), presence of insulin (1 nM), 4 h
# [7] = 1 mM (10^−3 M), absence of insulin, 4 h
# [8] = 1 mM (10^−3 M), presence of insulin (1 nM), 4 h
molecule,measurement,setting,value
insulin,increase of the incorporation of acetate,human adipocytes [1]; 1 nM of insulin,16%
same,increase of the incorporation of acetate,"human adipocytes [1]; 100 nM of insulin, another donor",120%
"CC[C@H](CC[C@@H](C)[C@H]1CC[C@H]2[C@@H]3CC=C4C[C@@H](O)CC[C@]4(C)[C@H]3CC[C@]12C)C(C)C [Beta-sitosterol, beta-sitosterol]",incorporation of acetate by isolated human adipocytes (conclusion),human adipocytes [1],inhibit the incorporation of acetate
same,% control (incorporation of acetate),human adipocytes [1]; [3],96%
same,% inhibition (incorporation of acetate),human adipocytes [1]; [3],4%
same,Average of cpm (incorporation of acetate),human adipocytes [1]; [3],200044 cpm
same,cpm - t0 test (incorporation of acetate),human adipocytes [1]; [3],193579 cpm
same,% inhibition (incorporation of acetate),"human adipocytes [1]; 0.01 mM (10^−5 M), absence of insulin, 4 h, listed as beta-sitosterol",weak and non-significant
same,% control (incorporation of acetate),human adipocytes [1]; [4],89%
same,Average of cpm (incorporation of acetate),human adipocytes [1]; [4],216417 cpm
same,cpm - t0 test (incorporation of acetate),human adipocytes [1]; [4],209952 cpm
same,% control (incorporation of acetate),human adipocytes [1]; [5],95%
same,% inhibition (incorporation of acetate),human adipocytes [1]; [5],5%
same,Average of cpm (incorporation of acetate),human adipocytes [1]; [5],198694 cpm
same,cpm - t0 test (incorporation of acetate),human adipocytes [1]; [5],192229 cpm
same,% inhibition (incorporation of acetate),"human adipocytes [1]; 0.1 mM (10^−4 M), absence of insulin, 4 h, listed as beta-sitosterol",weak and non-significant
same,% control (incorporation of acetate),human adipocytes [1]; [6],93%
same,Average of cpm (incorporation of acetate),human adipocytes [1]; [6],224445 cpm
same,cpm - t0 test (incorporation of acetate),human adipocytes [1]; [6],217980 cpm
same,% control (incorporation of acetate),human adipocytes [1]; [7],84%
same,% inhibition (incorporation of acetate),human adipocytes [1]; [7],16%
same,Average of cpm (incorporation of acetate),human adipocytes [1]; [7],175711 cpm
same,cpm - t0 test (incorporation of acetate),human adipocytes [1]; [7],169246 cpm
same,% control (incorporation of acetate),human adipocytes [1]; [8],83%
same,% inhibition (incorporation of acetate),human adipocytes [1]; [8],17%
same,Average of cpm (incorporation of acetate),human adipocytes [1]; [8],201168 cpm
same,cpm - t0 test (incorporation of acetate),human adipocytes [1]; [8],194703 cpm
same,% Control (NEFA liberation),human adipocytes [2]; 10^−2 M,92%
same,Average of the NEFA,human adipocytes [2]; 10^−2 M,131 µM
same,% Control (NEFA liberation),human adipocytes [2]; 10^−3 M (1 mM),103%
same,Average of the NEFA,human adipocytes [2]; 10^−3 M (1 mM),145 µM
same,% Control (NEFA liberation),human adipocytes [2]; 10^−4 M,96%
same,Average of the NEFA,human adipocytes [2]; 10^−4 M,135 µM
same,% Control (NEFA liberation),human adipocytes [2]; 10^−5 M,107%
same,Average of the NEFA,human adipocytes [2]; 10^−5 M,151 µM
same,% Control (NEFA liberation),human adipocytes [2]; 10^−6 M (1 μM),110%
same,Average of the NEFA,human adipocytes [2]; 10^−6 M (1 μM),156 µM
same,stimulation of lipolysis,"human adipocytes [2]; 10^−6 M, 10^−5 M, 10^−4 M, 10^−3 M and 10^−2 M",did not stimulate lipolysis
"CC[C@H](/C=C/[C@@H](C)[C@H]1CC[C@H]2[C@@H]3CC=C4C[C@@H](O)CC[C@]4(C)[C@H]3CC[C@]12C)C(C)C [Stigmasterol, stigmasterol]",% control (incorporation of acetate),human adipocytes [1]; [3],95%
same,% inhibition (incorporation of acetate),human adipocytes [1]; [3],weak and non-significant
same,Average of cpm (incorporation of acetate),human adipocytes [1]; [3],198442 cpm
same,cpm - t0 test (incorporation of acetate),human adipocytes [1]; [3],191977 cpm
same,% control (incorporation of acetate),human adipocytes [1]; [4],98%
same,% inhibition (incorporation of acetate),human adipocytes [1]; [4],2%
same,Average of cpm (incorporation of acetate),human adipocytes [1]; [4],235529 cpm
same,cpm - t0 test (incorporation of acetate),human adipocytes [1]; [4],229064 cpm
same,% inhibition (incorporation of acetate),"human adipocytes [1]; 0.01 mM (10^−5 M), presence of insulin (1 nM), 4 h, listed as stigmasterol",less than 5%
same,% control (incorporation of acetate),human adipocytes [1]; [5],96%
same,% inhibition (incorporation of acetate),human adipocytes [1]; [5],weak and non-significant
same,Average of cpm (incorporation of acetate),human adipocytes [1]; [5],200467 cpm
same,cpm - t0 test (incorporation of acetate),human adipocytes [1]; [5],194002 cpm
same,% control (incorporation of acetate),human adipocytes [1]; [6],97%
same,% inhibition (incorporation of acetate),human adipocytes [1]; [6],3%
same,Average of cpm (incorporation of acetate),human adipocytes [1]; [6],234524 cpm
same,cpm - t0 test (incorporation of acetate),human adipocytes [1]; [6],228059 cpm
same,% control (incorporation of acetate),human adipocytes [1]; [7],101%
same,% inhibition (incorporation of acetate),human adipocytes [1]; [7],weak and non-significant
same,Average of cpm (incorporation of acetate),human adipocytes [1]; [7],210055 cpm
same,cpm - t0 test (incorporation of acetate),human adipocytes [1]; [7],203590 cpm
same,% control (incorporation of acetate),human adipocytes [1]; [8],94%
same,% inhibition (incorporation of acetate),human adipocytes [1]; [8],6%
same,Average of cpm (incorporation of acetate),human adipocytes [1]; [8],227385 cpm
same,cpm - t0 test (incorporation of acetate),human adipocytes [1]; [8],220920 cpm
same,inhibition at 10 µM,"human adipocytes [1]; Homo sapiens, Adipocyte, 4 h, 0.01 mM (10^−5 M), absence of insulin",5%
same,inhibition at 100 µM,"human adipocytes [1]; Homo sapiens, Adipocyte, 4 h, 0.1 mM (10^−4 M), absence of insulin",4%
same,inhibition at 100 µM,"human adipocytes [1]; Homo sapiens, Adipocyte, 4 h, 0.1 mM (10^−4 M), presence of insulin (1 nM)",< 5%
same,inhibition at 1000 µM,"human adipocytes [1]; Homo sapiens, Adipocyte, 4 h, 1 mM (10^−3 M), absence of insulin",0%
same,inhibition at 1000 µM,"human adipocytes [1]; Homo sapiens, Adipocyte, 4 h, 1 mM (10^−3 M), presence of insulin (1 nM)",< 5%
same,liberation of fatty acids by isolated human adipocytes (conclusion),human adipocytes [2],increases the liberation of fatty acids
same,% Control (NEFA liberation),human adipocytes [2]; 10^−2 M,112%
same,Average of the NEFA,human adipocytes [2]; 10^−2 M,158 µM
same,% Control (NEFA liberation),human adipocytes [2]; 10^−3 M (1 mM),126%
same,Average of the NEFA,human adipocytes [2]; 10^−3 M (1 mM),178 µM
same,% Control (NEFA liberation),human adipocytes [2]; 10^−4 M,133%
same,Average of the NEFA,human adipocytes [2]; 10^−4 M,189 µM
same,% Control (NEFA liberation),human adipocytes [2]; 10^−5 M,128%
same,Average of the NEFA,human adipocytes [2]; 10^−5 M,180 µM
same,% Control (NEFA liberation),human adipocytes [2]; 10^−6 M (1 μM),112%
same,Average of the NEFA,human adipocytes [2]; 10^−6 M (1 μM),158 µM
same,effect on liberation of NEFA,human adipocytes [2]; 10^−6 M and 10^−2 M,did not show significant effect
